From PMC9666779 (Frontiers in Pharmacology, 2022)
Bridge positions count the residues as written; N and C are the ends. Square brackets hold non-standard residues; d marks the D form. Peptide text beside a SMILES is read from it.

Test system: pseudotyped SARS-CoV-2 Omicron BA.2.75
Settings: pseudotyped Omicron BA.2.75, 1 h, 2 μM

**Q.** Which “inhibition rate of the variant Omicron BA.2.75 pseudovirus” value does the source give for `CC(C)C[C@@H]1NC(=O)[C@H](C(C)C)NC(=O)[C@H](C)NC(=O)[C@H](Cc2ccc(O)cc2)NC(=O)[C@H](CCC(N)=O)NC(=O)[C@H](CC(C)C)NC(=O)[C@@H](Cc2ccccc2)NC(=O)[C@H](N)CSSC[C@H](C(=O)NCC(=O)NCC(=O)NCC(=O)N[C@@H](CCCNC(=N)N)C(=O)N2CCC[C@H]2C(=O)N2CCC[C@H]2C(=O)N[C@@H](CCCNC(=N)N)C(=O)N[C@@H](CCCNC(=N)N)C(=O)N[C@@H](C)C(=O)N[C@@H](CCCNC(=N)N)C(=O)O)NC(=O)[C@H](CCC(=O)O)NC(=O)[C@H](CCCNC(=N)N)NC(=O)[C@H](CCCNC(=N)N)NC(=O)[C@H](CCCCN)NC(=O)[C@H](CCC(N)=O)NC(=O)[C@H](CCCCN)NC1=O` [MN-2] (H-[dC][dF]LQYAVLKQKRRE[dC]GGGRPPRRAR-OH; disulfide 1-15) here?
**A.** Its value is “about 80%”.
